Laboratory results: PubChem BioAssay AID248 (DTP/NCI, 2004)
“And” between values parts separate entries of the source, which are not always exact repeats. Identical values can stand only once. Toxic doses and inconclusive results are not listed. Rule as the data show it: active = T/C of 150% or more; inactive = T/C below 125%. Square brackets hold non-standard residues; d marks the D form. Peptide text beside a SMILES is read from it. * marks the point of attachment. Cbz = O=C(OCc1ccccc1)*; Sar = CNCC(=O)O

Tested on: L1210 leukemia ip in BDF1 mice, survival T/C
Assay: NCI In Vivo Anticancer Drug Screen. Data for tumor model L1210 Leukemia (intraperitoneal) in B6D2F1 (BDF1) mice
Details: endpoint: mean survival time, higher = longer survival
Summary of the method: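 Ratio derived from survival: compound-dosed mice over vehicle-dosed mice, all bearing a transplantable tumor.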

[1] = dose: 50.0 mg/kg/injection, schedule: Q01DX001 (ip), vehicle: carboxymethylcellulose (CMC)
[2] = dose: 100.0 mg/kg/injection, schedule: Q01DX001 (ip), vehicle: carboxymethylcellulose (CMC)
[3] = dose: 200.0 mg/kg/injection, schedule: Q01DX001 (ip), vehicle: carboxymethylcellulose (CMC)
[4] = dose: 400.0 mg/kg/injection, schedule: Q01DX001 (ip), vehicle: carboxymethylcellulose (CMC)
[5] = dose: 100.0 mg/kg/injection, schedule: Q04DX003 (ip), vehicle: Klucel (hydroxypropylcellulose) (HPC)
[6] = dose: 200.0 mg/kg/injection, schedule: Q04DX003 (ip), vehicle: Klucel (hydroxypropylcellulose) (HPC)
[7] = dose: 400.0 mg/kg/injection, schedule: Q04DX003 (ip), vehicle: Klucel (hydroxypropylcellulose) (HPC)
[8] = dose: 50.0 mg/kg/injection, schedule: Q01DX009 (ip), vehicle: Klucel (hydroxypropylcellulose) (HPC)
[9] = dose: 50.0 mg/kg/injection, schedule: Q04DX003 (ip), vehicle: Klucel (hydroxypropylcellulose) (HPC)
[10] = dose: 25.0 mg/kg/injection, schedule: Q01DX009 (ip), vehicle: saline with Tween-80
[11] = dose: 50.0 mg/kg/injection, schedule: Q01DX009 (ip), vehicle: saline with Tween-80
[12] = dose: 100.0 mg/kg/injection, schedule: Q01DX001 (ip), vehicle: Klucel (hydroxypropylcellulose) (HPC)
[13] = dose: 200.0 mg/kg/injection, schedule: Q01DX001 (ip), vehicle: Klucel (hydroxypropylcellulose) (HPC)
[14] = dose: 400.0 mg/kg/injection, schedule: Q01DX001 (ip), vehicle: Klucel (hydroxypropylcellulose) (HPC)
[15] = dose: 100.0 mg/kg/injection, schedule: Q01DX009 (ip), vehicle: Klucel (hydroxypropylcellulose) (HPC)
[16] = dose: 200.0 mg/kg/injection, schedule: Q01DX009 (ip), vehicle: Klucel (hydroxypropylcellulose) (HPC)
[17] = dose: 400.0 mg/kg/injection, schedule: Q01DX009 (ip), vehicle: Klucel (hydroxypropylcellulose) (HPC)
[18] = dose: 100.0 mg/kg/injection, schedule: Q01DX009 (ip), vehicle: saline with Tween-80
[19] = dose: 200.0 mg/kg/injection, schedule: Q01DX009 (ip), vehicle: saline with Tween-80
[20] = dose: 400.0 mg/kg/injection, schedule: Q01DX009 (ip), vehicle: saline with Tween-80
[21] = dose: 100.0 mg/kg/injection, schedule: Q01DX001 (ip), vehicle: saline
[22] = dose: 200.0 mg/kg/injection, schedule: Q01DX001 (ip), vehicle: saline
[23] = dose: 400.0 mg/kg/injection, schedule: Q01DX001 (ip), vehicle: saline

Measured: T/C

O=S(=O)(O)OC1CCCC1S(=O)(=O)O (stereo not given)
inactive: [1] 96 % of control | [2] 107 % of control | [3] 107 % of control | [4] 86 % of control

CN1C(=O)OC2(CCN(Cc3ccccc3)CC2)C1=O
inactive: [5] 102 % of control | [6] 90 % of control | [7] 98 % of control

NC(=O)N1C(c2ccccc2)C1c1ccccc1 (stereo not given)
inactive: dose: 12.5 mg/kg/injection, schedule: Q01DX009 (ip), vehicle: Klucel (hydroxypropylcellulose) (HPC) 100 % of control | dose: 12.5 mg/kg/injection, schedule: Q04DX003 (ip), vehicle: Klucel (hydroxypropylcellulose) (HPC) 93 % of control | dose: 25.0 mg/kg/injection, schedule: Q01DX009 (ip), vehicle: Klucel (hydroxypropylcellulose) (HPC) 97 % of control | dose: 25.0 mg/kg/injection, schedule: Q04DX003 (ip), vehicle: Klucel (hydroxypropylcellulose) (HPC) 100 % of control | [8] 100 % of control | [9] 92 % of control

CSC(=O)N=Nc1c(O)n(C)c(=O)n(C)c1=O
inactive: dose: 12.5 mg/kg/injection, schedule: Q01DX009 (ip), vehicle: saline with Tween-80 104 % of control | [10] 97 % of control | [11] 97 % of control and 87 % of control

CC(=O)N/N=C/C=C/c1ccccc1
inactive: [10] 95 % of control | [11] 103 % of control

COc1ccc2nc(NC(=O)NCCCl)sc2c1
inactive: [12] 90 % of control | [13] 95 % of control | [14] 91 % of control

COC(=O)C1=CC=CC1
inactive: dose: 100.0 mg/kg/injection, schedule: Q01DX005 (ip), vehicle: Klucel (hydroxypropylcellulose) (HPC) 103 % of control | [15] 104 % of control | dose: 200.0 mg/kg/injection, schedule: Q01DX005 (ip), vehicle: Klucel (hydroxypropylcellulose) (HPC) 98 % of control | [16] 104 % of control | dose: 400.0 mg/kg/injection, schedule: Q01DX005 (ip), vehicle: Klucel (hydroxypropylcellulose) (HPC) 95 % of control | [17] 93 % of control

CC12CCC(=O)C=C1CCC1C2CCC2(C)C(C(=O)CC(O)(C(F)(F)F)C(F)(F)F)CCC12 (stereo not given)
inactive: [12] 94 % of control | [13] 96 % of control | [14] 96 % of control

NC1C(=O)NC(=O)NC1=O
inactive: dose: 50.0 mg/kg/injection, schedule: Q01DX009 (ip), vehicle: carboxymethylcellulose (CMC) 100 % of control | dose: 100.0 mg/kg/injection, schedule: Q01DX009 (ip), vehicle: carboxymethylcellulose (CMC) 103 % of control | dose: 100.0 mg/kg/injection, schedule: Q04DX002 (ip), vehicle: Klucel (hydroxypropylcellulose) (HPC) 102 % of control | dose: 200.0 mg/kg/injection, schedule: Q01DX009 (ip), vehicle: carboxymethylcellulose (CMC) 92 % of control | dose: 200.0 mg/kg/injection, schedule: Q04DX002 (ip), vehicle: Klucel (hydroxypropylcellulose) (HPC) 104 % of control

Oc1ccc(C/C=C/c2ccccc2)cc1
inactive: [18] 98 % of control | [19] 96 % of control | [20] 102 % of control

COc1cccc(N2C(=O)CC(=P(c3ccccc3)(c3ccccc3)c3ccccc3)C2=O)c1
inactive: dose: 75.0 mg/kg/injection, schedule: Q01DX001 (ip), vehicle: saline 96 % of control | dose: 150.0 mg/kg/injection, schedule: Q01DX001 (ip), vehicle: saline 95 % of control

COc1ccccc1-n1c(=O)c(N=Nc2ccc(Cl)cc2)c(O)n(-c2ccccc2C)c1=S
inactive: dose: 75.0 mg/kg/injection, schedule: Q04DX003 (ip), vehicle: Klucel (hydroxypropylcellulose) (HPC) 94 % of control | dose: 150.0 mg/kg/injection, schedule: Q04DX003 (ip), vehicle: Klucel (hydroxypropylcellulose) (HPC) 107 % of control | dose: 300.0 mg/kg/injection, schedule: Q04DX003 (ip), vehicle: Klucel (hydroxypropylcellulose) (HPC) 104 % of control

CCNCC
inactive: dose: 100.0 mg/kg/injection, schedule: Q04DX003 (ip), vehicle: saline 93 % of control | dose: 200.0 mg/kg/injection, schedule: Q04DX003 (ip), vehicle: saline 101 % of control | dose: 400.0 mg/kg/injection, schedule: Q04DX003 (ip), vehicle: saline 101 % of control

O=C1CCSC(=S)N1c1cccc(C(F)(F)F)c1
inactive: dose: 25.0 mg/kg/injection, schedule: Q04DX003 (ip), vehicle: saline with Tween-80 101 % of control | dose: 50.0 mg/kg/injection, schedule: Q04DX003 (ip), vehicle: saline with Tween-80 104 % of control | dose: 100.0 mg/kg/injection, schedule: Q04DX003 (ip), vehicle: saline with Tween-80 104 % of control

O=C1c2cc([N+](=O)[O-])ccc2-c2cc(Cl)c([N+](=O)[O-])cc21
inactive: [1] 102 % of control | [2] 91 % of control | [3] 91 % of control | [4] 93 % of control

Cc1ccc(S(=O)(=O)N2CCC(O)(c3ccccc3)CC2)cc1
inactive: [15] 91 % of control | [5] 90 % of control | [16] 90 % of control | [6] 91 % of control | [17] 92 % of control | [7] 89 % of control

Cc1cn(-c2ccccc2)c(=O)[nH]c1=O
inactive: dose: 100.0 mg/kg/injection, schedule: Q01DX001 (ip), vehicle: other 112 % of control

CN(CC(=O)O)C(=O)CNC(=O)OCc1ccccc1 (Cbz-Gly-[Sar]-OH)
inactive: [8] 105 % of control | [9] 97 % of control | [15] 94 % of control | [5] 97 % of control | [16] 91 % of control | [6] 98 % of control

Nc1cccc(C(=O)c2cccc(N)c2)c1
inactive: [2] 96 % of control | [3] 94 % of control | [4] 88 % of control

CC1(C)OCC(C2OC(N)C(O)C2O)O1 (stereo not given)
inactive: dose: 100.0 mg/kg/injection, schedule: Q04DX002 (ip), vehicle: saline 94 % of control | dose: 200.0 mg/kg/injection, schedule: Q04DX002 (ip), vehicle: saline 97 % of control | dose: 400.0 mg/kg/injection, schedule: Q04DX002 (ip), vehicle: saline 102 % of control

FC(F)(F)c1cc(Cl)ccc1Cl
inactive: dose: 80.0 mg/kg/injection, schedule: Q01DX009 (ip), vehicle: Klucel (hydroxypropylcellulose) (HPC) 100 % of control | [5] 101 % of control and 106 % of control | dose: 160.0 mg/kg/injection, schedule: Q01DX009 (ip), vehicle: Klucel (hydroxypropylcellulose) (HPC) 102 % of control | [6] 92 % of control and 104 % of control | dose: 320.0 mg/kg/injection, schedule: Q01DX009 (ip), vehicle: Klucel (hydroxypropylcellulose) (HPC) 111 % of control | [7] 99 % of control and 102 % of control

c1ccc(P(CC[As](c2ccccc2)c2ccccc2)CC[As](c2ccccc2)c2ccccc2)cc1
inactive: [5] 93 % of control | [6] 93 % of control | [7] 96 % of control

Cc1ccc(NS(=O)(=O)c2ccc(F)cc2)cc1C
inactive: [15] 95 % of control | [5] 95 % of control | [16] 95 % of control | [6] 105 % of control | [17] 97 % of control | [7] 101 % of control

CCCCCCCCCCCn1cnc2c(N)ncnc21
inactive: dose: 12.5 mg/kg/injection, schedule: Q01DX005 (ip), vehicle: other 93 % of control | dose: 25.0 mg/kg/injection, schedule: Q01DX005 (ip), vehicle: other 103 % of control | dose: 50.0 mg/kg/injection, schedule: Q01DX005 (ip), vehicle: other 92 % of control | dose: 100.0 mg/kg/injection, schedule: Q01DX005 (ip), vehicle: other 103 % of control | dose: 200.0 mg/kg/injection, schedule: Q01DX005 (ip), vehicle: other 104 % of control

CCCCCCCCCCCCCCCCNc1cccc2ccccc12
inactive: [5] 90 % of control | [6] 90 % of control | [7] 91 % of control

CC(C)CC(C)(CC(C)C)C(=O)O
inactive: [21] 100 % of control | [22] 100 % of control | [23] 102 % of control

OC(Cc1ccccc1)c1ccccc1 (stereo not given)
inactive: dose: 50.0 mg/kg/injection, schedule: Q01DX001 (ip), vehicle: saline 100 % of control | [21] 100 % of control | [18] 89 % of control | [22] 93 % of control | [19] 98 % of control | [23] 93 % of control | [20] 95 % of control
